Measured values from patent US10513519B2, “Solid forms of (1S,4S)-4-(2-(((3S,4R)-3-fluorotetrahydro-2H-pyran-4-yl)amino)-8-((2,4,6-trichlorophenyl)amino)-9H-purin-9-yl)-1-methylcyclohexane-1-carboxamide and methods of their use” (Signal Pharmaceuticals, LLC, priority 2016, dated 2019).

Columns and labels:
[1] = system: HCT-116 (colo) cells; assay: Long term colony assay, HCT-116; format: cell-based; conditions: HCT-116, up to 8 weeks
Description: Compound 1 was assessed for its ability to inhibit the colony formation of cancer cells via a long-term colony forming assay. Cells and compounds were added to 96-well plates and were monitored for up to 8 weeks for the formation of colonies. Compound and media were replenished every 1 week throughout the course of the assay. Colony formation was detected via imaging at 4× on the IncuCyte ZOOM System. […] (FIGS. 210A-210D).

[2] = pKa; format: physicochemical
[3] = system: 64 cancer cell lines; assay: Anti-proliferative activity across a panel of 64 cancer cell lines (CellTiter-Glo); format: cell-based
Description: Prior to testing, cells were grown and expanded in culture flasks to provide sufficient amounts of starting material. Cells were then diluted to the appropriate densities and added directly to the compound-spotted 384-well plates. Cells were allowed to grow for 72 h at 37° C./5% CO2. At the time when compound was added (to), initial cell number was assessed via a viability assay (Cell Titer-Glo) by quantifying the level of luminescence generated by ATP present in viable cells. After 72 h, cell viability of compound-treated cells was assessed via Cell Titer-Glo and luminescence measurement. The apoptotic response to Compound 1 was assessed by quantifying the activities of caspase 3 and caspase 7 (Caspase 3/7-Glo) in treated cells and DMSO control cells.
Cells were treated with DMSO or increasing concentrations of Compound 1 for 72 h. Proliferation was measured using CellTiter-Glo as described.

[4] = HUH-6-clone5, 72 h, HuH-6-Clone5 (Liver)
[5] = HepG2/C3A, 72 h, HepG2/C3A (Liver)
[6] = Homo sapiens, A549, 72 h, A549 (Lung)
[7] = Homo sapiens, A-375, 72 h, A375 (Melanoma)
[8] = Homo sapiens, BXPC-3, 72 h, BxPC-3 (Pancreas)
[9] = Homo sapiens, CFPAC-1, 72 h, CFPAC-1 (Pancreas)
[10] = Homo sapiens, COLO 205, 72 h, Colo 205 (Colon)
[11] = Homo sapiens, HCT-116, 72 h, HCT-116 (Colon)
[12] = Homo sapiens, HOP-62, 72 h, HOP62 (Lung)
[13] = Homo sapiens, HOP-92, 72 h, HOP92 (Lung)
[14] = Homo sapiens, HT-29, 72 h, HT29 (Colon)
[15] = Homo sapiens, HT-29, 72 h, HT29/219 (Colon)
[16] = Homo sapiens, Hep3B, 72 h, Hep3B (Liver)
[17] = Homo sapiens, HepG2, 72 h, HepG2 (Liver)
[18] = Homo sapiens, HuCCT-1, 72 h, HuCCT1 (Liver)
[19] = Homo sapiens, HuH-1, 72 h, HuH-1 (Liver)
[20] = Homo sapiens, Huh-7, 72 h, HuH-7 (Liver)
[21] = Homo sapiens, K562, 72 h, K-562 (Leukemia)
[22] = Homo sapiens, KATO III, 72 h, KATOIII, Stomach
[23] = Homo sapiens, LOX IMVI, 72 h, LOX-IMVI (Melanoma)
[24] = Homo sapiens, LoVo, 72 h, LOVO (Colon)
[25] = Homo sapiens, MDA-MB-231, 72 h, MDA-MB-231 (Breast)

## C[C@]1(C(N)=O)CC[C@@H](n2c(Nc3c(Cl)cc(Cl)cc3Cl)nc3cnc(N[C@@H]4CCOC[C@H]4F)nc32)CC1 [Compound 1, cis-4-[2-{[(3S,4R)-3-fluorooxan-4-yl]amino}-8-(2,4,6-trichloroanilino)-9H-purin-9-yl]-1-methylcyclohexane-1-carboxamide]
[1]
  inhibition of colony formation vs trametinib and GDC0994: greater levels of inhibition than seen with treatment with MEK inhibitors or ERK inhibitors
[2]
  pKa: 5.14
[3]; 72 h, 92-1 (Melanoma)
  GI50: 10.2 nM
  IC50: 31.6 nM
[3]; 72 h, AGS, Stomach
  GI50: 23 nM
  IC50: 28 nM
[3]; 72 h, FOCUS (Liver)
  GI50: 1500 nM
  IC50: 4300 nM
[3]; 72 h, HLE (Liver)
  GI50: 4850 nM
  IC50: 9620 nM
[3]; 72 h, HLF (Liver)
  GI50: 6680 nM
  IC50: 7390 nM
[3]; 72 h, JHH-5 (Liver)
  GI50: 4.5 nM
  IC50: 7 nM
[3]; 72 h, JHH-6 (Liver)
  GI50: 10000 nM
  IC50: 10000 nM
[3]; 72 h, PC-9 (Lung)
  GI50: 217 nM
  IC50: 379 nM
[3]; 72 h, CRC, melanoma, gastric cancer, HCC, lung cancer, pancreatic cancer, leukemia, multiple myeloma
  proliferation of multiple cancer cell lines: inhibit the proliferation
[3]; [4]
  GI50: 29.1 nM
  IC50: 1220 nM
[3]; [5]
  GI50: 4620 nM
  IC50: 10000 nM
[3]; [6]
  GI50: 40.2 nM
  IC50: 82.2 nM
[3]; [7]
  GI50: 21 nM
  IC50: 24 nM
[3]; [8]
  GI50: 36.8 nM
  IC50: 70.8 nM
[3]; [9]
  GI50: 1950 nM
  IC50: 7400 nM
[3]; [10]
  GI50: 25 nM
  IC50: 40 nM
[3]; [11]
  GI50: 17 nM
  IC50: 22 nM
[3]; [12]
  GI50: 339 nM
  IC50: 3490 nM
[3]; [13]
  GI50: 108 nM
  IC50: 117 nM
[3]; [14]
  GI50: 16 nM
  IC50: 25 nM
[3]; [15]
  GI50: 1.7 nM
  IC50: 4.5 nM
[3]; [16]
  GI50: 5.3 nM
  IC50: 14.7 nM
[3]; [17]
  GI50: 34.6 nM
  IC50: 1240 nM
[3]; [18]
  GI50: 25.3 nM
  IC50: 1300 nM
[3]; [19]
  GI50: 235 nM
  IC50: 7260 nM
[3]; [20]
  GI50: 21.2 nM
  IC50: 489 nM
[3]; [21]
  GI50: 5420 nM
  IC50: 6030 nM
[3]; [22]
  GI50: 7050 nM
  IC50: 8020 nM
[3]; [23]
  GI50: 22 nM
  IC50: 25 nM
[3]; [24]
  GI50: 63 nM
  IC50: 126 nM
[3]; [25]
  GI50: 35.3 nM
  IC50: 3330 nM
[3]; Homo sapiens, MIA PaCa-2, 72 h, MiaPaCa-2 (Pancreas)
  GI50: 47 nM
